{"source": "patent EP4285905A1", "about": "“CABERGOLINE OR A PHARMACEUTICALLY ACCEPTABLE SALT OR SOLVATE THEREOF, FOR USE IN PREVENTION OR DELAY OF POST-PREGNANCY BREAST CANCER IN A FEMALE MAMMAL” (Consejo Superior de Investigaciones Cientificas, priority 2022, dated 2023)", "key": {"Brca1/P53-deficient mice": {"tested_on": "Brca1/P53-deficient mice", "test": "Quantification of adipose and ductal tissue areas in the breast (hematoxylin-eosin, ImageJ)", "format": "in vivo", "settings": "for adipose tissue area: vs untreated lactating multiparous mice, P < 0.001", "text": "Subsequently, the same groups of animals indicated were generated and samples were collected from the mammary glands at 1, 3, 7, 30 and 60 days post-gestation (in non-lactating multiparous) or post-weaning (in lactating multiparous, with and without treatment with cabergoline) (N = 5 mice per group at each time studied).\nThe left inguinal breast of each mouse was embedded in paraffin for further study. Once removed from the animals, the breasts were fixed in 4% paraformaldehyde (Scharlau FO) for 24 hours and, subsequently, they were kept in 70% ethanol at a temperature of 4 °C, until they were processed in the Comparative Molecular Pathology Service of the Salamanca Cancer Research Center. Tissues were dehydrated by three 1-hour incubations in increasing concentrations of ethanol (60%, 80%, and 100%). Three other 1-hour incubations were carried out in xylol, to replace the dehydrating agent with a substance miscible in paraffin. Finally, three other incubations of 1 hour and 20 minutes were carried out with liquid paraffin, after which blocks were made with a mould suitable for the size of the tissue in a paraffin embedding station. When the paraffin blocks were completely cold, 2-µm-thick sections were made using a rotation microtome (Leica RM2255).\nHematoxylin and eosin staining was performed in the Comparative Molecular Pathology Service of the Salamanca Cancer Research Center using a battery of manual staining following the processes: deparaffinization in xylol, rehydration with ethanol at different graduations, hematoxylin and eosin staining, dehydration with ethanol and clearance. Once the process was finished, the samples were mounted by adding a drop of non-aqueous DPX fixative and the coverslip was placed.\nAdipose tissue area and ductal area were evaluated using ImageJ free software. The ductal area was defined as the surface occupied by the epithelium of the ducts together with the surrounding fibrous tissue stroma, excluding the area of the tubular lumen. To evaluate the ductal and adipocyte area, 10 photos were taken at 10X magnification of the surface of the mammary gland of each of the study animals, five photos in the distal area and five in the proximal area of the breast. The photos were taken randomly in each of these areas of the samples stained with hematoxylin-eosin, with a Leica DM1000 light microscope. […] In the proximal area, more adipose tissue and less ductal tissue were observed than in the distal area, and vice versa. For this reason, only the values of the distal zone were determined to carry out the analyses.\nThe quantification was expressed as a percentage of the total area. […]"}, "[1]": {"tested_on": "K14Cre; Brca1^F/F; P53^F/F", "test": "Tumour latency and tumour incidence in the Brca1/P53 deficient mouse model", "format": "in vivo, mice", "text": "The study model used was a genetically modified mouse, generated by the group led by Jos Jinkers from the Netherland Cancer Institute and generously donated to our group. It is a conditional double knock-out (KO) for Brca1 and P53 that expresses Cre-recombinase under the promoter of the cytokeratin-14 gene (K14) as a model named: K14Cre; Brca1^F/F; P53^F/F (hereinafter Brca1 or KO). These mice develop mammary tumours (cancers) with a penetrance of 100% (although it depends on whether they develop skin cancer first and must be sacrificed) and a median age of 7 months. They mimic human tumours with BRCA1 mutations, since they are basal-type and lose P53. Since Cre-recombinase under the promoter of the K14 gene is not only expressed in mammary cells, but also in other epithelial cells, these mice develop squamous cell carcinoma-like skin tumors. The cohort of mice used in this study has an FVB/N genetic background. […]"}}, "data": [{"smiles": "C=CCN1C[C@H](C(=O)N(CCCN(C)C)C(=O)NCC)C[C@@H]2c3cccc4[nH]cc(c34)C[C@H]21", "note": "[cabergoline, 1-[(6-allylergolin-8ß-yl)-carbonyl]-1-[3-(dimethylamino)propyl]-3-ethylurea]", "values": [{"measurement": "adipose tissue area", "setting": "Brca1/P53-deficient mice; 3 days after weaning", "result": "statistically significant increase in adipose tissue"}, {"measurement": "adipose tissue area", "setting": "Brca1/P53-deficient mice; 7 days after weaning", "result": "statistically significant increase in adipose tissue"}, {"measurement": "ductal area", "setting": "Brca1/P53-deficient mice; 30 days post-lactational involution", "result": "drastic decrease in ductal area"}, {"measurement": "ductal area (epithelial component)", "setting": "Brca1/P53-deficient mice; 60 days post-lactational involution", "result": "great reduction of the epithelial component"}, {"measurement": "tumour latency", "setting": "[1]; single intraperitoneal dose 0.25 mg/Kg at weaning after second lactation, vs pregnancy and lactation group P = 0.019, non-lactation pregnancy group P < 0.0001, nulliparous P < 0.0001", "result": "greater latency"}, {"measurement": "tumour incidence", "setting": "[1]; single intraperitoneal dose 0.25 mg/Kg at weaning, 10 mice out of 37 developed tumour, vs lactating multiparous mice P = 0.0062", "result": 27.78, "unit": "%"}]}]}
